Assay results published in patent US20250327074A1 (SHAOXING INSTITUTE, ZHEJIANG UNIVERSITY, priority 2024, published 2025).

Tests used:
Type in all cases: cell-based
HEK293T cells proteome = assay: Proteome background incorporation, TCO-biotin streptavidin dot blot; conditions: CTA and TCG codon groups among 7 rare codons; 200 μM TetBu
Description: When the TetRS/PylTyyy recoding system is expressed in HEK293T, it recodes endogenous genomic codons into TetBu, generating a modified proteome containing TetBu. The IEDDA reaction between TetBu and trans-cyclooctene (TCO) enables biotinylation of TetBu-containing proteins via TCO-Biotin. Streptavidin dot blot detects biotin signals, where signal intensity correlates with TetBu incorporation levels (FIG. 3, right).
1.3.2 Screening of Rare Codons with Low Background Incorporation • (1) Intracellular expression of the recoding system: Plasmids encoding TetBu/PylTyyy (yyy=anticodons for TCG, ACG, GCG, CCG, CGT, GTA, CTA) were transfected using Lipofectamine 2000. After 6 hours, cells were treated with fresh DMEM±200 μM TetBu for 40 hours. Cells were lysed in 100 μL Modified RIPA Buffer to obtain whole-cell lysates.
The reaction system was prepared as described in Table 3. Reaction products were mixed with 7 μL bromophenol blue-free 4×SDS loading buffer, boiled at 100° C. for 10 min, and analyzed via streptavidin dot blot.
Samples were spotted onto a nitrocellulose membrane and air-dried at room temperature for 15 min. The membrane was washed with 10 mL TBST (80 rpm, 5 min) three times, discarding the supernatant each time. Blocking was performed with 10 mL TBST containing 5% non-fat milk for 1 h, followed by three additional TBST washes (10 mL, 80 rpm, 5 min each). […]

[1] = tested on: rare codon in EGFP reporter, HEK293T cells; assay: LC-MS recoding efficiency of rare codons in EGFP reporter; conditions: TetRS/PylTyyy, 200 μM TetBu, HEK293T
Method: (§1) The recoding translation system and the rare codon-bearing POI were co-transfected into HEK293T cells. Then, two methods were used to calculate the ncAA recoding rate: 1) LC-MS analysis: the protein of the POI mixture, including the fraction incorporated with ncAA and the fraction with NAA at rare codons, was purified by Ni2+-NTA beads and subjected to LC-MS analysis. The ncAA recoding rate was determined by the intensity of two fractions quantified by LC-MS. 2) TCO-PEG5000 mass tag labeling analysis: this method was suitable for quantifying the TetBu recoding rate in this work. When the protein mixture was incubated with TCO-PEG5000 mass tag, the protein incorporated with TetBu would be labeled by this mass tag and migrated much slower in SDS-PAGE.
(§2) When the recoding system (TetRS/PylTyyy) is co-expressed with a target protein carrying the recoding codon in HEK293T, the recoding codon can be translated into a natural amino acid by endogenous tRNA (Dec-tRNA), or recoding into TetBu by the engineered tRNA (Rec-tRNA), producing a mixture of protein byproducts (with a single-site mutation) and the target protein containing TetBu. Based on this, two methods were established to assess sense codon recoding efficiency: a) Liquid chromatography-mass spectrometry (LC-MS) for differentiates proteins based on molecular weight differences, and b) TCO-PEG5000 macromolecular label target proteins containing TetBu, which increases their molecular weight by 5 kDa. The shift in protein bands is detected via immunoblotting (FIG. 2).
(1) Transfection: Plasmids encoding the TetBu/PylTyyy recoding system (where xxx represents different codons and yyy represents different anticodons) were co-transfected with the plasmid mCherry-T2A-EGFP^N149XXX-6×His at a 1:1 (g:g) ratio. For a 10 cm dish, the total transfection mixture contained 20 μg DNA+[…] Lipofectamine 2000+2 mL Opti-MEM.
(2) Protein expression and purification: After 6 hours, the medium was replaced with fresh DMEM containing 200 μM TetBu for 40 hours to induce protein expression. Cells were lysed in 1 mL Modified RIPA Buffer, and the supernatant was purified using Ni-NTA beads.
(3) LC-MS analysis of recoding efficiency:Using a Waters Xevo G2-XS TOF Mass Spectrometer, the recoding efficiency of rare codons (CTA, GTA, CGT, CCG, GCG, ACG, and TCG) at the EGFP149 site was evaluated.
(2) Cell transfection and protein expression purification: HEK293T cells were seeded in 10 cm culture dishes and transfected at 60-70% confluency. For each transfection, […] of plasmid carrying mCherry-T2A-EGFPY151TCG-6×His was co-transfected with one of the following recoding system plasmids: chPhe_AcFRS/12×(U6-chPheTCGA), EcTyr_OmeYRS/12×(U6-EcTyrTCGA), or EcLeu_OmeYRS/12×(U6-EcLeuTCGA). After 6 hours, the medium was replaced with serine/glycine-free DMEM/F12 containing 500 μM of the respective unnatural amino acid. Following protein expression and purification, LC-MS was used to determine TCG recoding efficiency at position 151 of EGFP. Detailed transfection and purification protocols following section 2.2.1.2, with cell culture conditions in serine-free medium as described in Example 2.

[2] = tested on: IL-1B, IL-2, IL-4, IL-6 bearing TCG codon, HEK293T cells; assay: TCO-PEG5000 mass tag labeling recoding efficiency in interleukin proteins; conditions: TetRS/PylTCGA, 200 μM TetBu, serine/glycine-free
Method: as §1, §2
The recoding system and plasmids containing the TCG codon for the cytokines were co-transfected into HEK293T cells. Six hours post-transfection, the medium was replaced with serine/glycine-free DMEM/F12 medium supplemented with 200 μM TetBu. After 40 hours of protein expression, 500 μL of Modified RIPA lysis buffer was added to each well to lyse the cells. The TCO-PEG5000 labeling method was used to assess the recoding efficiency.

[3] = tested on: Ser-tRNACGA knockout HEK293T cell lines 1A8, 2A3, 3A12, 4C23; assay: LC-MS TCG recoding efficiency in Ser-tRNACGA knockout cell lines; conditions: for efficiency in recoding TCG codon at position 151 of EGFP: single-copy recoding tRNA
Description: Four sgRNAs targeting Ser-tRNACGA were designed (Table 6). CRISPR/Cas9 was used to generate knockout polyclonal populations, followed by FACS sorting to isolate monoclonal lines. Sequencing confirmed successful editing in four knockout strains: 1A8, 2A3, 3A12, and 4C23 (FIG. 6).
This example evaluates the TCG codon recoding capability of the knockout cell lines using the TetRS/PylTCGA recoding system as a model.

CCCCc1nnc(-c2cccc(C[C@H](N)C(=O)O)c2)nn1 [TetBu, (S)-2-amino-3-(3-(6-butyl-1,2,4,5-tetrazin-3-yl)phenyl)propanoic acid]
proteome-wide background TetBu incorporation (biotin signal intensity) (HEK293T cells proteome): lowest biotin signal intensity
recoding efficiency ([1]; ACG codon at EGFP149 site): 7.1%
recoding efficiency ([1]; TCG codon at EGFP149 site): 8.5%
TetBu recoding efficiency ([2]; position 62 of IL-2): 80.8%
TetBu recoding efficiency ([2]; position 87 of IL-6): 83.9%
TetBu recoding efficiency ([2]; position 121 of IL-4): 99.3%
TetBu recoding efficiency ([2]; position 205 of IL-1B): 78.10%
efficiency in recoding TCG codon at position 151 of EGFP ([3]; knockout cell line 1A8): 61%
efficiency in recoding TCG codon at position 151 of EGFP ([3]; knockout cell line 2A3): 51%
efficiency in recoding TCG codon at position 151 of EGFP ([3]; knockout cell line 3A12): 58%
efficiency in recoding TCG codon at position 151 of EGFP ([3]; knockout cell line 4C23): 68%
improvement of TCG recoding compared to HEK293T cells ([3]; strain 4C23): 1.4 fold
